Columns and labels:
[1] = Long-term stability of nicotinamide ribose solution after pH adjustment with hydrochloric acid; format: physicochemical; conditions: storage temperature 0-4° C., storage time 45 days
From the text: (§1) The results of various parameters in the preparation of the intermediate product nicotinamide ribose solution are shown in Table 1 to Table 5.

[2] = Long-term stability of nicotinamide ribose solution after pH adjustment with sodium bicarbonate; format: physicochemical; conditions: 2-4° C., storage time 45 days
From the text: as §1

nicotinamide ribose [nicotinamide ribose solution]
Stability (degradation) ([1]; pH 4 (hydrochloric acid)): 1.3%
Stability (degradation) ([1]; pH 5 (hydrochloric acid)): 2.1%
Stability (degradation) ([2]; pH 4 (sodium bicarbonate)): 2.4%
Stability (degradation) ([2]; pH 5 (sodium bicarbonate)): 3.7%

From patent US12227534B2, “Method for preparing nicotinamide mononucleotide by using nicotinamide as raw material” (BONTAC BIO-ENGINEERING(SHENZHEN) CO., LTD., priority 2020, dated 2025)
